Data: article PMC12833730, “Discovery of a First‐in‐Class Covalent Allosteric SHP1 Inhibitor with Immunotherapeutic Activity” (Angewandte Chemie (International Ed. in English), 2025)
“Also recorded” adds a separate entry of the source.

System: SHP1 KO Jurkat T cells
Test: TCR-LCK signaling in SHP1 KO cells
Assay type: cell-based
Protocol: Supernatants from lysed cells were reduced, treated with iodoacetamide to cap thiol residues, and digested by trypsin for bottom‐up proteomics analysis. […] LCK is the direct substrate of SHP1 and ERK1/2, and PLCγ is the downstream effector protein of LCK‐mediated TCR signaling. […] Statistical analyses were performed with Graphpad Prism software 10.4.2 through the one‐way ANOVA test using Turkey post‐hoc comparison. ****p < 0.0001 was considered significant.
To further confirm M029 cellular target engagement, we investigated the effect of M029 on T cell function. SHP1 plays a negative role in T cells, and deletion of SHP1 in T cells lowers the activation threshold and enhances antitumor immunity.^[ [30], [31], [32], [33] ^] Mechanistically, SHP1 attenuates T cell receptor (TCR) signaling via dephosphorylation of the lymphocyte‐specific protein tyrosine kinase LCK.^[ [31], [84], [85], [86] ^] T cell activation leads to increased expression and secretion of interleukin 2 (IL‐2)^[ [87] ^] while the removal of SHP1 in T cells enhances IL‐2 production, cell proliferation, and cytolysis capacity.^[ [30], [32] ^] Accordingly, we sought to assess the impact of targeting SHP1 with M029 on TCR‐LCK signaling and T cell activation. […] M029 also dose‐dependently promoted IL‐2 production (Figure 4c). […]

Structure (SMILES): N#Cc1ccsc1NS(=O)(=O)c1ccc(NC(=O)CCl)cc1 [M029, 2-Chloro-N-(4-(N-(3-cyanothiophen-2-yl)sulfamoyl)phenyl)acetamide]
- LCK, PLCγ, and ERK1/2 phosphorylation in SHP1-deleted cells: abolished; also recorded: unable to alter
